# Results reported in patent publication US20100087523A1, “Rupestonic acid derivatives and use thereof” (priority 2008, published 2010).
# Read-outs that look alike come from different tables or passages of the source.
# Assays:
# [1] = tested on: MDCK (Madin-darby canine kidney) cells; settings: read-out: TC50 (toxic concentration 50%); host cells of the anti-flu virus test
# [2] = tested on: A-type flu virus (jifang/90-15)
# in vitro = settings: dog
# [3] = tested on: B-type flu virus (jifang/97-13); assay: organism not typed; settings: MDCK, 36 h, read-out: Activity for inhibiting B-type flu viruses IC50
# [4] = tested on: A-type flu virus (jifang/90-15); assay: organism not typed; settings: MDCK, 36 h, read-out: Activity for inhibiting A-type flu viruses IC50
# [5] = tested on: B-type flu virus (jifang/97-13); settings: read-out: Activity for inhibiting B-type flu viruses IC50
# [6] = read-out: IC50, inhibit A-type flu virus
# [7] = read-out: Activity for inhibiting A-type flu viruses IC50
smiles,measurement,setting,value
"C=C(C(=O)Oc1ccc(C)cc1)C1CCC(C)C2CC(=O)C(C)=C2C1 (centres unmarked) [B-9, Rupestonic (p-methylphenyl)-ester]",CC50,[1],191 µM
same,IC50,[2]; [6],13.4 µM
"C=C(C(=O)Oc1ccc(Br)cc1)C1CCC(C)C2CC(=O)C(C)=C2C1 (centres unmarked) [B-4, Rupestonic (p-bromophenyl)-ester]",CC50,[1],44.2 µM
same,IC50,[2]; [7],10.2 µM
"C=C(C(=O)Oc1ccc(Cl)cc1)C1CCC(C)C2CC(=O)C(C)=C2C1 (centres unmarked) [B-2, Rupestonic (p-chlorophenyl)-ester]",CC50,[1],240 µM
same,IC50,[2]; [6],19.1 µM
NC(=O)c1ncn([C@@H]2O[C@H](CO)[C@@H](O)[C@H]2O)n1 [Ribavirin],CC50,in vitro,1570 µM
same,IC50,[3],11.9 µM
same,IC50,[4],1.6 µM
"C=C(C(=O)Nc1ccccc1Br)C1CCC(C)C2CC(=O)C(C)=C2C1 (centres unmarked) [A-5, N(2-bromo-phenyl)-Rupestonic amide]",CC50,[1],160 µM
same,IC50,[2]; [7],49 µM
"C=C(C(=O)Oc1ccccc1Cl)C1CCC(C)C2CC(=O)C(C)=C2C1 (centres unmarked) [B-3, Rupestonic (o-chlorophenyl)-ester]",CC50,[1],49.7 µM
same,IC50,[2]; [7],11.5 µM
CCOC(=O)C1=C[C@@H](OC(CC)CC)[C@H](NC(C)=O)[C@@H](N)C1 [Oseltamivir],CC50,in vitro,> 1220 µM
same,IC50,[4],5.1 µM
"C=C(C(=O)OCc1ccc([N+](=O)[O-])cc1)C1CCC(C)C2CC(=O)C(C)=C2C1 (centres unmarked) [B-15, Rupestonic (p-nitryl-benzyl)-ester]",CC50,[1],25 µM
same,IC50,[5],5.5 µM
same,IC50,[2]; [7],5.5 µM
"C=C(C(=O)Nc1ccc(Cl)cc1)C1CCC(C)C2CC(=O)C(C)=C2C1 (centres unmarked) [A-2, N(4-chloro-phenyl)-Rupestonic amide]",CC50,[1],121 µM
same,IC50,[5],29.9 µM
same,IC50,[2]; [7],19.2 µM
"C=C(C(=O)OCC)C1CCC(C)C2CC(=O)C(C)=C2C1 (centres unmarked) [B-1, Ethyl Rupestonic ester]",CC50,[1],194 µM
same,IC50,[5],50.9 µM
same,IC50,[2]; [7],39.1 µM
"C=C(C(=O)OCc1ccc(Cl)cc1)C1CCC(C)C2CC(=O)C(C)=C2C1 (centres unmarked) [B-14, Rupestonic (p-chlorobenzyl)-ester]",CC50,[1],47.7 µM
same,IC50,[5],19.1 µM
same,IC50,[2]; [7],12.5 µM
"C=C(C(=O)OCc1ccccc1Br)C1CCC(C)C2CC(=O)C(C)=C2C1 (centres unmarked) [B-17, Rupestonic (o-bromobenzyl)-ester]",CC50,[1],57.3 µM
same,IC50,[5],25.7 µM
same,IC50,[2]; [7],15.2 µM
"C=C(C(=O)O)[C@H]1CC[C@H](C)[C@@H]2CC(=O)C(C)=C2C1 [Compound 1, rupestonic acid]",CC50,[1],1040 µM
same,IC50,[5],116 µM
